In the supplement of paper PMC10883282:

Assays:
Assay in all cases: relative viability vs DMSO control (72 h) (fraction); higher = more viable cells
SW684 = tested on: SW684
Method in brief: (§1)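 Plates held 72 h at 37 °C and 5% CO2 contained sarcoma cell lines seeded in 384-well format to reach 80–90% confluence, plus 2.5 µl of serially diluted compound added after 24 h. Source plate concentrations ran from 10 mM to 0.0002 mM, with 0.1% DMSO as vehicle and a 5 µM positive control. Percent growth from ATPLite readings, averaged over up to triplicate wells, gave relative viability. Values were rescaled with 1 as full and 0 as none.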

RD-ES = tested on: RD-ES
Method in brief: as §1

SYO-1 = tested on: SYO-1
Method in brief: as §1

KHOS-NP = tested on: KHOS-NP
Method in brief: as §1

HT1080 = tested on: HT1080
Method in brief: as §1

CC(C)(C)c1nc(-c2cccc(NS(=O)(=O)c3c(F)cccc3F)c2F)c(-c2ccnc(N)n2)s1 [Dabrafenib]
relative viability
Conditions | HT1080 | KHOS-NP | RD-ES | SW684 | SYO-1
0.00017 µM | 1.05 | 1.09 | 0.94 | 1.13 | 0.985
0.00051 µM | 1.09 | 1.07 | 0.924 | 1.09 | 0.9278
0.00152 µM | 1.01 | 1.05 | 0.948 | 1.129 | 0.926
0.00457 µM | 1.07 | 0.995 | 0.94 | 1.18 | 0.911
0.01372 µM | 1.05 | 1.01 | 0.911 | 1.13 | 0.92
0.04115 µM | 1.11 | 1.03 | 0.872 | 1.12 | 0.919
0.1235 µM | 1.13 | 1.01 | 0.838 | 1.13 | 0.898
0.3704 µM | 0.944 | 0.901 | 0.706 | 1.025 | 0.939
1.111 µM | 0.837 | 0.743 | 0.531 | 0.953 | 0.857
3.333 µM | 0.886 | 0.522 | 0.508 | 1.09 | 0.871
10 µM | 0.6761 | 0.303 | 0.557 | 1.16 | 0.816

CCc1cnn2c(NCc3ccc[n+]([O-])c3)cc(N3CCCC[C@H]3CCO)nc12 [Dinaciclib]
relative viability
Conditions | HT1080 | KHOS-NP | RD-ES | SW684 | SYO-1
0.00017 µM | 1.04 | 1.03 | 0.937 | 0.96 | 0.982
0.00051 µM | 1.04 | 1.05 | 0.916 | 1.01 | 0.998
0.00152 µM | 1.04 | 1.06 | 0.912 | 1.02 | 0.982
0.00457 µM | 1.09 | 1.07 | 0.886 | 0.964 | 0.908
0.01372 µM | 0.792 | 0.836 | 0.612 | 0.669 | 0.28
0.04115 µM | 0.193 | 0.183 | 0.0429 | 0.713 | 0.248
0.1235 µM | 0.208 | 0.153 | 0.0102 | 0.71 | 0.256
0.3704 µM | 0.209 | 0.163 | 0.00417 | 0.713 | 0.294
1.111 µM | 0.202 | 0.164 | 0.0013 | 0.689 | 0.288
3.333 µM | 0.216 | 0.162 | -0.0014 | 0.7 | 0.295
10 µM | 0.219 | 0.137 | -0.00263 | 0.71 | 0.305

C[C@H](Nc1ncnc2nc[nH]c12)c1cc2cccc(Cl)c2c(=O)n1-c1ccccc1 [Duvelisib]
relative viability
Conditions | HT1080 | KHOS-NP | RD-ES | SW684 | SYO-1
0.00017 µM | 1.11 | 1.09 | 0.991 | 1.15 | 1.03
0.00051 µM | 1.14 | 1.09 | 1.01 | 1.11 | 1.01
0.00152 µM | 1.13 | 1.1 | 1.04 | 1.09 | 0.994
0.00457 µM | 1.126 | 1.1 | 1.04 | 0.899 | 0.995
0.01372 µM | 1.08 | 1.121 | 1.02 | 0.838 | 0.9906
0.04115 µM | 1.14 | 1.09 | 0.996 | 0.722 | 1.01
0.1235 µM | 1.124 | 1.07 | 0.956 | 0.683 | 0.925
0.3704 µM | 1.138 | 1.07 | 0.932 | 0.633 | 0.911
1.111 µM | 1.147 | 1.08 | 0.845 | 0.543 | 0.841
3.333 µM | 1.13 | 1.07 | 0.726 | 0.501 | 0.797
10 µM | 1.07 | 1.07 | 0.551 | 0.453 | 0.688

CC1(C)CC=C(c2nc(C3CC(C)(C)OC(C)(C)C3)ccc2NC(=O)c2nc(C#N)c[nH]2)CC1 [Edicotinib]
relative viability
Conditions | HT1080 | KHOS-NP | RD-ES | SW684 | SYO-1
0.00017 µM | 1.03 | 1.03 | 0.9975 | 1.13 | 0.931
0.00051 µM | 1.07 | 1.03 | 1.01 | 1.14 | 0.925
0.00152 µM | 1.03 | 1.04 | 1.02 | 1.16 | 0.919
0.00457 µM | 1.041 | 1.04 | 1.02 | 1.15 | 0.96
0.01372 µM | 1.04 | 1.03 | 1.01 | 1.13 | 0.963
0.04115 µM | 1.03 | 1.04 | 0.999 | 1.1 | 0.94
0.1235 µM | 1.037 | 1.05 | 1.021 | 1.11 | 0.961
0.3704 µM | 1.021 | 1.04 | 1.01 | 1.17 | 1.01
1.111 µM | 0.9787 | 1.05 | 1.01 | 1.24 | 1.03
3.333 µM | 1.019 | 0.996 | 0.987 | 1.14 | 0.981
10 µM | 0.993 | 0.974 | 0.968 | 1.16 | 1.04
